Values joined by “and” are separate entries in the source; they are usually repeats but may differ in a detail not shown here. Equal values may be shown once. Read-outs that look alike come from different tables or passages of the source. Square brackets hold non-standard residues; d marks the D form. Ends that are not written are not given here. Peptide text beside a SMILES is read from it. Tpi = O=C(O)[C@@H]1Cc2c([nH]c3ccccc23)CN1
Experiments:
human (h) α1β1εδ nAChR [1] = biological target: T1, human (h) α1β1εδ nAChR (Homo sapiens, UniProt P02708+P11230+Q04844+Q07001); experiment: Two-electrode voltage clamp, inhibition of ACh-evoked currents at hα1β1εδ nAChR in Xenopus oocytes; format: cell-based; details: for Relative current amplitude (h) α1β1εδ: compound 100 µM, currents activated by 5 μM ACh, ratio ACh + compound to ACh alone, mean ± SD, n = 6–11
T1 construct: host or cells: Xenopus laevis oocytes, cRNA injected
Procedure: (§1) All procedures were approved by the University of Wollongong Animal Ethics Committees (project number: AE2003). Female Xenopus laevis were sourced from Nasco (Fort Atkinson, WI, USA), and a maximum of four frogs were kept in a 15 L aquarium at 20–26 °C with 12 h light/dark cycle. Oocytes were obtained from five-year-old frogs anesthetized with 1.7 mg/mL ethyl 3-aminobenzoate methanesulfonate (pH 7.4 with NaHCO3). Stage V-VI oocytes (Dumont’s classification; 1200–1300 μm diameter) were defolliculated with 1.5 mg/mL collagenase Type II (Worthington Biochemical Corp., Lakewood, NJ, USA) at room temperature for 1–2 h in OR-2 solution containing (in mM): 82.5 NaCl, 2 KCl, 1 MgCl2 and 5 HEPES at pH 7.4.
(§2) The human muscle nAChR clones (α1, β1, γ, δ and ε) were purchased from Integrated DNA Technologies (Coralville, IA, USA), whereas the human α3, α9, α10, β2, and β4 clones were purchased from OriGene (Rockville, MD, USA), and all were subsequently inserted into the pT7TS vector. The human α4 and α7 clones were obtained from Prof. Jon Lindstrom (University of Pennsylvania, Philadelphia, PA, USA). Plasmid constructs of the human nAChR clones were linearized for in vitro mRNA synthesis using mMessage mMachine transcription kit (AMBION, Forster City, CA, USA).
(§3) Oocytes were injected with 5 ng cRNA for hα1β1γδ, hα1β1εδ, hα3β2, hα3β4 and hα4β2, 10 ng cRNA for hα7 nAChR, and 35 ng cRNA for hα9α10 nAChR (concentration confirmed spectrophotometrically and by gel electrophoresis). The muscle subunit cRNA ratio was 2:1:1:1 (α1:β1: γ/ε:δ), whereas the heteromeric α and β subunit cRNA ratio was 1:1, injected using glass pipettes pulled from glass capillaries (3-000-203 GX, Drummond Scientific Co., Broomall, PA, USA). Oocytes were incubated at 18 °C in sterile ND96 solution composed of (in mM): 96 NaCl, 2 KCl, 1 CaCl2, 1 MgCl2, and 5 HEPES at pH 7.4, supplemented with 5% fetal bovine serum, 50 mg/L gentamicin (GIBCO, Grand Island, NY, USA) and […] penicillin-streptomycin (GIBCO).
(§4) Electrophysiological recordings were carried out 2–5 days post cRNA microinjection. Two-electrode voltage clamp recordings of X. laevis oocytes expressing human nAChRs were performed at room temperature (21–24 °C) using a GeneClamp 500B amplifier and pClamp9 software interface (Molecular Devices, Sunnyvale, CA, USA) at a holding potential −80 mV. Voltage-recording and current-injecting electrodes were pulled from GC150T-7.5 borosilicate glass (Harvard Apparatus, Holliston, MA) and filled with 3 M KCl, giving resistances of 0.3–1 MΩ. Due to the Ca^2+ permeability of α9α10 nAChRs, 100 µM BAPTA-AM incubation was carried out before recording to prevent the activation of X. laevis oocyte endogenous Ca^2+-activated chloride channels. Oocytes expressing hα9α10 nAChRs were perfused with ND115 solution containing (in mM): 115 NaCl, 2.5 KCl, 1.8 CaCl2, and 10 HEPES at pH 7.4, whereas oocytes expressing all other nAChR subtypes were perfused with ND96 solution using a continuous Legato 270 push/pull syringe pump perfusion system (KD Scientific, Holliston, MA, USA) at a rate of 2 mL/min in an OPC-1 perfusion chamber of <20 µL volume (Automate Scientific, Berkeley, CA, USA).
(§5) Initially, oocytes were briefly washed with ND115/ND96 solution, followed by 3 applications of ACh at a half-maximal excitatory ACh concentration (EC50) for the nAChR subtypes (3 µM for hα4β2, 5 µM for hα1β1γδ and hα1β1εδ, 6 µM for hα3β2 and hα9α10, 100 µM for hα7 and 300 µM for hα3β4). Washout with bath solution was performed for 3 min between ACh applications. Oocytes were incubated with compounds for 5 min with the perfusion system turned off, followed by co-application of ACh and compound with flowing bath solution. All compound solutions were prepared in ND115/ND96 + 0.1% bovine serum albumin (BSA). Incubation with 0.1% BSA was performed to ensure that the BSA and the pressure of the perfusion system had no effect on nAChRs. […]
Target sequence in this assay (P02708 21-457 limits assumed): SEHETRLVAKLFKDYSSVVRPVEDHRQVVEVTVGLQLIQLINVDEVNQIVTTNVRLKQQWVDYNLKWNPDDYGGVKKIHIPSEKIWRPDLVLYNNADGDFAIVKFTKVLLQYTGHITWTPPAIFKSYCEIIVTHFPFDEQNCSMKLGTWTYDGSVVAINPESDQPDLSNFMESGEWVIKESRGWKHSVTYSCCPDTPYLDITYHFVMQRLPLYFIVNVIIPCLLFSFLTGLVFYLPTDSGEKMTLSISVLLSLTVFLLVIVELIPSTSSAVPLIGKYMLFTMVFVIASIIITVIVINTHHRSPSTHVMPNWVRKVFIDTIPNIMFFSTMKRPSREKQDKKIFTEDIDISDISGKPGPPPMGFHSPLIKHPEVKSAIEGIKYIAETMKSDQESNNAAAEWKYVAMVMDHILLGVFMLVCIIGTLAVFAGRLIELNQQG
Target sequence in this assay (P11230 24-501 limits assumed): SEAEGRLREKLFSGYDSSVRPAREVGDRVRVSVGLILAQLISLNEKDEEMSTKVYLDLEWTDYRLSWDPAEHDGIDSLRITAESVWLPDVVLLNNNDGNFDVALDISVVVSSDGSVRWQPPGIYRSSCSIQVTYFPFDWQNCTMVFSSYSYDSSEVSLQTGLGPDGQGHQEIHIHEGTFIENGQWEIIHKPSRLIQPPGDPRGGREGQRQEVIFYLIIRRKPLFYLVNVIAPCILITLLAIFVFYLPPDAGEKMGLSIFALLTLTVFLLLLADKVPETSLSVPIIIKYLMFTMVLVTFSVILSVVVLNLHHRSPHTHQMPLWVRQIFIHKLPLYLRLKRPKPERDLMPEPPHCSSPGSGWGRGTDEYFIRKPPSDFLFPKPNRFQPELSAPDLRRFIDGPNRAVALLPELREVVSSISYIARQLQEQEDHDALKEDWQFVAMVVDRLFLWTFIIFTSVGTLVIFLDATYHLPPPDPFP
Target sequence in this assay (Q04844 21-493 limits assumed): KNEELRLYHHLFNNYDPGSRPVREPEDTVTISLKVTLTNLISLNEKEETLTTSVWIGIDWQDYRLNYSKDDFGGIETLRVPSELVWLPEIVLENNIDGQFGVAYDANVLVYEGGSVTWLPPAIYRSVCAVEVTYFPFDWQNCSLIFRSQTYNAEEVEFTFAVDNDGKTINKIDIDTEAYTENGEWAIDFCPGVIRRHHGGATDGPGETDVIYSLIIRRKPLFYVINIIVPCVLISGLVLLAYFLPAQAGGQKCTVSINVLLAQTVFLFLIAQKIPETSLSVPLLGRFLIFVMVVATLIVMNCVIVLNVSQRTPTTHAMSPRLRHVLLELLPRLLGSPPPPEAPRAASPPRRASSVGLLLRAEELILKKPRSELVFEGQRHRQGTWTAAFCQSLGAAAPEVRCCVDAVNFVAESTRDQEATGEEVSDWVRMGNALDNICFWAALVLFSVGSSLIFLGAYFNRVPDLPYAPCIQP
Target sequence in this assay (Q07001 22-517 limits assumed): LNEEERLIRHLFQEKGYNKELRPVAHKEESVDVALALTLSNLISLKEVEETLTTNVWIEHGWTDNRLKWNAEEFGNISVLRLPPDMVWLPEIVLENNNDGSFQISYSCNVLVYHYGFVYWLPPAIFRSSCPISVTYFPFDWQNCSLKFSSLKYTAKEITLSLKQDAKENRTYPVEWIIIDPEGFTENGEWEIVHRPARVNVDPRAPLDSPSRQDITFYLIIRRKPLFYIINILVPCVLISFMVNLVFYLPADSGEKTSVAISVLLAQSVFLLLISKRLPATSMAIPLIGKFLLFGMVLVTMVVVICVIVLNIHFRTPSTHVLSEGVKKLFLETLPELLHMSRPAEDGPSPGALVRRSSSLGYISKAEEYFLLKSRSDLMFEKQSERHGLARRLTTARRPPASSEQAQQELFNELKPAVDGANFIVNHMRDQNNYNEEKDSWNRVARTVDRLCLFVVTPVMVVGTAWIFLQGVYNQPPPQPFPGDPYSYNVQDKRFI

human (h) α1β1γδ nAChR = biological target: T2, human (h) α1β1γδ nAChR (Homo sapiens, UniProt P02708+P07510+P11230+Q07001); experiment: Two-electrode voltage clamp, inhibition of ACh-evoked currents at hα1β1γδ nAChR in Xenopus oocytes; format: cell-based; details: for Relative current amplitude (h)α1β1γδ: compound 100 µM, currents activated by 5 μM ACh, ratio ACh + compound to ACh alone, mean ± SD, n = 6–11
T2 construct: host or cells: Xenopus laevis oocytes, cRNA injected
T2 sequence (P11230 24-501): as the sequence (P11230 24-501 limits assumed) above
T2 sequence (P07510 23-517): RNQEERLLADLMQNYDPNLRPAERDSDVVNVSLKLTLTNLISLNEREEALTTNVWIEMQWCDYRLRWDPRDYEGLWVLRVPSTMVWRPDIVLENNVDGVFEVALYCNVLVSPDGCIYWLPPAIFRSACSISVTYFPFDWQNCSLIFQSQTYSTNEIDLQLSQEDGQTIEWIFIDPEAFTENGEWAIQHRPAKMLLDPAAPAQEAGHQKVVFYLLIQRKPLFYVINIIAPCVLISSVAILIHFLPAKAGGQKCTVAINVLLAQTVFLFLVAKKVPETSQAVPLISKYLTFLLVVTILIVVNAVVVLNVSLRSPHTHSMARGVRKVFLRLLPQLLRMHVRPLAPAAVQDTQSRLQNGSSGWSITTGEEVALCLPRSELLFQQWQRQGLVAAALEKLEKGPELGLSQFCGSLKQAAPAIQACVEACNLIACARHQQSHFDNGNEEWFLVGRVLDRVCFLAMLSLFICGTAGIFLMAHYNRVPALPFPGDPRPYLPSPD
T2 sequence (P02708 21-457): as the sequence (P02708 21-457 limits assumed) above
T2 sequence (Q07001 22-517): as the sequence (Q07001 22-517 limits assumed) above
Procedure: as §1, §2, §3, §4, §5

human (h) α3β2 nAChR = biological target: T3, human (h) α3β2 nAChR (Homo sapiens, UniProt P17787+P32297); experiment: Two-electrode voltage clamp, inhibition of ACh-evoked currents at hα3β2 nAChR in Xenopus oocytes; format: cell-based; details: for Relative current amplitude (h)α3β2: compound 100 µM, currents activated by 6 μM ACh, ratio ACh + compound to ACh alone, mean ± SD, n = 6–11
T3 construct: host or cells: Xenopus laevis oocytes, cRNA injected
T3 sequence (P32297 32-505): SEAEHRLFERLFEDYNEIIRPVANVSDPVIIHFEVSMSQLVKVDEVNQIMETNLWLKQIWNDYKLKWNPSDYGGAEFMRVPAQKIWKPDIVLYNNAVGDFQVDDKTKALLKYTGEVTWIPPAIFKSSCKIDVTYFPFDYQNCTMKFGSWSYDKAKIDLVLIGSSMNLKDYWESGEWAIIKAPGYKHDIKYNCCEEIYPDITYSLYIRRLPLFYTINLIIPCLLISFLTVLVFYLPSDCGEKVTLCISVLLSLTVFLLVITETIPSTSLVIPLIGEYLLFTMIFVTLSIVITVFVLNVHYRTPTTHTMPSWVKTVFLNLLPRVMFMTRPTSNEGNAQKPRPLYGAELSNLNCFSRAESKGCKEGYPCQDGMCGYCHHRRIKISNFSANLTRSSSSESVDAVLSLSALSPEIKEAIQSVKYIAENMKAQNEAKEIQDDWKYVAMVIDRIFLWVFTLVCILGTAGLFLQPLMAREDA
T3 sequence (P17787 26-502): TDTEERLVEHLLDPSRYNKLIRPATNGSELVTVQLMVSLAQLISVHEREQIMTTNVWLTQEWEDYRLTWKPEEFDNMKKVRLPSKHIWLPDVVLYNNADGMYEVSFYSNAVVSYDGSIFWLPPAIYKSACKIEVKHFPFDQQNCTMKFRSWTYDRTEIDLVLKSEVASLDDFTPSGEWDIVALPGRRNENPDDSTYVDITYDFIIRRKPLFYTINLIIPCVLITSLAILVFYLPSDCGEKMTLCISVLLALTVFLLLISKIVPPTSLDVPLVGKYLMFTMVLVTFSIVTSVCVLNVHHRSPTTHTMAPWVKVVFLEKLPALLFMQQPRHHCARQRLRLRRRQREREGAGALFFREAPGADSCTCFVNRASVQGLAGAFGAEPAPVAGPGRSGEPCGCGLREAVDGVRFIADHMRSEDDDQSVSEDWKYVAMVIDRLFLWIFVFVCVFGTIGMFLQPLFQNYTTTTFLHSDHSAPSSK
Procedure: as §1, §2, §3, §4, §5

human (h) α3β4 nAChR = biological target: T4, human (h) α3β4 nAChR (Homo sapiens, UniProt P30926+P32297); experiment: Two-electrode voltage clamp, inhibition of ACh-evoked currents at hα3β4 nAChR in Xenopus oocytes; format: cell-based; details: for Relative current amplitude (h)α3β4: compound 100 µM, currents activated by 300 μM ACh, ratio ACh + compound to ACh alone, mean ± SD, n = 6–11
T4 construct: host or cells: Xenopus laevis oocytes, cRNA injected
Procedure: as §1, §2, §3, §4, §5

human (h) α4β2 nAChR = biological target: T5, human (h) α4β2 nAChR (Homo sapiens, UniProt P17787+P43681); experiment: Two-electrode voltage clamp, inhibition of ACh-evoked currents at hα4β2 nAChR in Xenopus oocytes; format: cell-based; details: for Relative current amplitude (h)α4β2: compound 100 µM, currents activated by 3 μM ACh, ratio ACh + compound to ACh alone, mean ± SD, n = 6–11
T5 construct: Jon Lindstrom; β2: OriGene (clones); host or cells: Xenopus laevis oocytes, cRNA injected
T5 sequence (P17787 26-502): as above
T5 sequence (P43681 29-627): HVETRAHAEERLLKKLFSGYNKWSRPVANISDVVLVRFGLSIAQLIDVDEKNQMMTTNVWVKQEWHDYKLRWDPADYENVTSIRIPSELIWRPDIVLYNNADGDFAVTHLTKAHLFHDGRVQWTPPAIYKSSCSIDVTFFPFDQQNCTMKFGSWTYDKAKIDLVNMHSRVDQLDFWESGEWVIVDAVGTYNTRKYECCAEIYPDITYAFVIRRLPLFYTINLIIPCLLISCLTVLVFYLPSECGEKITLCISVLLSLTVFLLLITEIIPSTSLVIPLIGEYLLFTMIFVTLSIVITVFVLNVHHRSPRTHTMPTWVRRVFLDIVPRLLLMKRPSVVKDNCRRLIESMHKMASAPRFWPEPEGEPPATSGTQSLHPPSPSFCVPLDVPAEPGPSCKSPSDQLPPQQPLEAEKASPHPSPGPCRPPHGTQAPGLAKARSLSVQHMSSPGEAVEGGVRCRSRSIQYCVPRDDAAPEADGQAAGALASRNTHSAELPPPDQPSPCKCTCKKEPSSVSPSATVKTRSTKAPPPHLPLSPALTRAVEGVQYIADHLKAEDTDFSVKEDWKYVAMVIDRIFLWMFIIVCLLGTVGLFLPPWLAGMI
Procedure: as §1, §2, §3, §4, §5

human (h) α7 nAChR = biological target: T6, human (h) α7 nAChR (Homo sapiens, UniProt P36544); experiment: Two-electrode voltage clamp, inhibition of ACh-evoked currents at hα7 nAChR in Xenopus oocytes; format: cell-based; details: compound 100 µM; currents activated by 100 μM ACh; ratio ACh + compound to ACh alone; mean ± SD, n = 6–11
T6 construct: Jon Lindstrom (clone); host or cells: Xenopus laevis oocytes, cRNA injected
T6 sequence (P36544 23-502): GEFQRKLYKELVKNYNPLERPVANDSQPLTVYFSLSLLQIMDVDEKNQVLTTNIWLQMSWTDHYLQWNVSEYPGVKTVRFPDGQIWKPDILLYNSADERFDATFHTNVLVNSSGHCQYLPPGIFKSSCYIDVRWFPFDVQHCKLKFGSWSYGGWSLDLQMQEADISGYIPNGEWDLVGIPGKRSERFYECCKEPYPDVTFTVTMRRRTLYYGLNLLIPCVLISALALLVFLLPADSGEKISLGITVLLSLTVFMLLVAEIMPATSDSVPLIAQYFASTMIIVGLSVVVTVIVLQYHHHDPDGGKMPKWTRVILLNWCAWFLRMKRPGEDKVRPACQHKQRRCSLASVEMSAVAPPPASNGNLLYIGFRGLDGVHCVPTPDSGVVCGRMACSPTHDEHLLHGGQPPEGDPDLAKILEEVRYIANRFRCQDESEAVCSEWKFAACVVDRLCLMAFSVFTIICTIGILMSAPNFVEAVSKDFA
Procedure: as §1, §2, §3, §4, §5

human (h) α9α10 nAChR = biological target: T7, human (h) α9α10 nAChR (Homo sapiens, UniProt Q9GZZ6+Q9UGM1); experiment: Two-electrode voltage clamp, inhibition of ACh-evoked currents at hα9α10 nAChR in Xenopus oocytes; format: cell-based; details: for Relative current amplitude (h)α9α10: compound 100 µM, currents activated by 6 μM ACh, ratio ACh + compound to ACh alone, mean ± SD, n = 6–11
T7 construct: host or cells: Xenopus laevis oocytes, cRNA injected
Procedure: as §1, §2, §3, §4, §5

HL60 cell lines = details: cited from earlier work
BEL-7047 cell lines = test system: BEL-7047 cell lines; design: method as in doi:10.1016/j.tet.2008.11.078; details: read-out: IC50, cytotoxicity against BEL-7047 cell lines; cited from earlier work
NF-kB = test system: NF-kB; design: method as in doi:10.1016/j.tet.2012.09.038; details: cited from earlier work
Balamus amphitrite = test system: Balamus amphitrite; design: method as in doi:10.1016/j.tetlet.2015.12.026; details: cited from earlier work
human (h) α1β1εδ nAChR [2] = biological target: T1, human (h) α1β1εδ nAChR; details: read-out: half-maximal inhibitory concentration (IC50), ACh-evoked currents mediated by hα1β1εδ; cited from earlier work
[3] = compound 100 µM (Figure 3, Table S1), 100 µM
[4] = compound 100 µM (Figure 3, Table S1)

Molecule	Relative current amplitude (h) α1β1εδ (human (h) α1β1εδ nAChR [1])	Relative current amplitude (h)α1β1γδ (human (h) α1β1γδ nAChR)	Relative current amplitude (h)α3β2 (human (h) α3β2 nAChR)	Relative current amplitude (h)α3β4 (human (h) α3β4 nAChR)	Relative current amplitude (h)α4β2 (human (h) α4β2 nAChR)	Relative current amplitude (h)α7 (human (h) α7 nAChR)	Relative current amplitude (h)α9α10 (human (h) α9α10 nAChR)	further results
CC(C)C(NC(=O)C(N)Cc1c[nH]c2ccccc12)C(=O)NC(C(=O)NC(Cc1ccccc1)C(=O)O)C(C)C (stereo not shown) [Compound 1, psegynamide A] (H-WVVF-OH; configuration not given here)	0.190 ± 0.056	0.664 ± 0.062	0.435 ± 0.071	0.462 ± 0.069	0.637± 0.053	0.293 ± 0.074	0.103 ± 0.027	
COC(=O)[C@@H](Cc1ccccc1)NC(=O)[C@@H](NC(=O)[C@H](NC(=O)[C@@H](N)Cc1c[nH]c2ccccc12)C(C)C)C(C)C [Compound 2, psegynamide B] (H-W[dV]V[dF]-OMe)	0.024 ± 0.011	0.017 ± 0.014	0.236 ± 0.069	0.071 ± 0.028	0.301 ± 0.039	0.566 ± 0.072	0.075 ± 0.036	inhibition of ACh-evoked currents, α1β1εδ (human (h) α1β1εδ nAChR [1]; [3]): > 70%; inhibition of ACh-evoked currents, α1β1γδ (human (h) α1β1γδ nAChR; [3]): > 70% and > 98%; inhibition at 100 µM (human (h) α3β2 nAChR; [4]): > 70%; inhibition at 100 µM (human (h) α3β4 nAChR; [4]): > 70%; inhibition at 100 µM (human (h) α4β2 nAChR; [4]): > 70%; inhibition at 100 µM (human (h) α9α10 nAChR; [4]): > 70%
CC(C)[C@H](NC(=O)[C@H](NC(=O)[C@@H](N)Cc1c[nH]c2ccccc12)C(C)C)C(=O)N[C@H](Cc1ccc(O)cc1)C(=O)O [Compound 3, psegynamide C] (H-W[dV]V[dY]-OH)	0.648 ± 0.067	0.861 ± 0.084	0.451 ± 0.056	0.675 ± 0.040	0.793 ± 0.078	0.368 ± 0.088	0.509 ± 0.041	
CC(C)[C@H](NC(=O)[C@H](NC(=O)[C@@H]1Cc2c([nH]c3ccccc23)CN1)C(C)C)C(=O)N[C@H](Cc1ccccc1)C(=O)O [Compound 4, psegynamide D]	0.757 ± 0.065	0.985 ± 0.019	0.924 ± 0.069	0.670 ± 0.049	0.972 ± 0.057	0.228 ± 0.049	0.824 ± 0.064	
COC(=O)[C@@H](Cc1ccccc1)NC(=O)[C@@H](NC(=O)[C@H](NC(=O)[C@@H]1Cc2c([nH]c3ccccc23)CN1)C(C)C)C(C)C [Compound 5, psegynamide E]	0.392 ± 0.069	0.799 ± 0.063	0.656 ± 0.074	0.656 ± 0.051	0.837 ± 0.061	0.399 ± 0.061	0.374 ± 0.073	
COC(=O)[C@@H](Cc1ccc(O)cc1)NC(=O)[C@@H](NC(=O)[C@H](NC(=O)[C@@H]1Cc2c([nH]c3ccccc23)CN1)C(C)C)C(C)C [Compound 6, psegynamide F] (H-[Tpi][dV]V[dY]-OMe)	0.618 ± 0.047	0.802 ± 0.096	0.579 ± 0.077	0.777 ± 0.053	0.938 ± 0.076	0.838 ± 0.066	0.760 ± 0.062	
C[C@@H]1C=CC(=O)[C@@]2(C)CC[C@@H]3[C@@H]4[C@@](C)(CC[C@@]4(C)CO)C[C@@]132 [conidiogenone C]								IC50 (HL60 cell lines; read-out: IC50, cytotoxicity against HL60 cell lines): 38 nM; IC50 (BEL-7047 cell lines): 900 nM
CC(=O)c1cc(C)c(O)c(C[C@]23Cc4c(O)c(C(C)=O)cc(C)c4O[C@@]2(O)[C@@H](C)OC3=O)c1O [penilactone A]								NF-kB inhibitory rate (NF-kB): 40%
CC(=O)c1cc(C)c(O)c(C[C@@]23Cc4c(O)c(C(C)=O)cc(C)c4O[C@]2(O)[C@H](CC(=O)O)OC3=O)c1O [penilactone B]								NF-kB inhibitory rate (NF-kB): 40%
trichobotryside A								EC50, inhibiting the larvae settlement of Balamus amphitrite (Balamus amphitrite): 2.5 µg/mL
trisorbicillone A								IC50 (HL60 cell lines; read-out: IC50, cytotoxic against HL60 cell lines): 3140 nM
α-conotoxin GI (ECCNPACGRHYSC; ends and bridges not checked; cysteine pairing not given here; UniProt X5I9Y2 50-62, looked up)								IC50 (human (h) α1β1εδ nAChR [2]): 20 nM

Source: publication PMC9604729, “Unusual Tetrahydropyridoindole-Containing Tetrapeptides with Human Nicotinic Acetylcholine Receptors Targeting Activity Discovered from Antarctica-Derived Psychrophilic Pseudogymnoascus sp. HDN17-933” (Marine Drugs, 2022)
